Reference: US5082848A, “Substituted 4-aminoquinoline derivatives as gastric acid secretion inhibitors” (Smith Kline & French Laboratories, Ltd., priority 1988, dated 1992)

Columns and labels:
[1] = test system: pentagastrin stimulated gastric acid secretion; experiment: Rat Lumen Perfused Stomach (pentagastrin stimulated gastric acid secretion); type: in vivo; settings: i.v. administration, 10 μmole/kg
Excerpt: B. Rat Lumen Perfused Stomach (pentagastrin stimulated gastric acid secretion).
Using a modification of the procedure described by Ghosh & Schild (Br. J. Pharmacology, 13, 54, 1958), the compounds of the following examples were found on i.v. administration at a concentration of 10 μmole/kg to cause an inhibition of pentagastrin stimulated gastric acid secretion as follows: […]

H^+ K^+ ATPase = target: T1, H^+ K^+ ATPase (Sus scrofa, UniProt P19156); experiment: K^+ -stimulated ATPase activity in lyophilised gastric vesicles; type: biochemical; settings: lyophilised gastric vesicles from pig fundic mucosa, 37° C., pH 7.0, 30 minutes
T1 construct: Lyophilised gastric vesicles were prepared from pig fundic mucosa; from tissue; host or cells: pig fundic (gastric) mucosa, lyophilised gastric vesicles
T1 sequence (P19156 2-1034 limits assumed): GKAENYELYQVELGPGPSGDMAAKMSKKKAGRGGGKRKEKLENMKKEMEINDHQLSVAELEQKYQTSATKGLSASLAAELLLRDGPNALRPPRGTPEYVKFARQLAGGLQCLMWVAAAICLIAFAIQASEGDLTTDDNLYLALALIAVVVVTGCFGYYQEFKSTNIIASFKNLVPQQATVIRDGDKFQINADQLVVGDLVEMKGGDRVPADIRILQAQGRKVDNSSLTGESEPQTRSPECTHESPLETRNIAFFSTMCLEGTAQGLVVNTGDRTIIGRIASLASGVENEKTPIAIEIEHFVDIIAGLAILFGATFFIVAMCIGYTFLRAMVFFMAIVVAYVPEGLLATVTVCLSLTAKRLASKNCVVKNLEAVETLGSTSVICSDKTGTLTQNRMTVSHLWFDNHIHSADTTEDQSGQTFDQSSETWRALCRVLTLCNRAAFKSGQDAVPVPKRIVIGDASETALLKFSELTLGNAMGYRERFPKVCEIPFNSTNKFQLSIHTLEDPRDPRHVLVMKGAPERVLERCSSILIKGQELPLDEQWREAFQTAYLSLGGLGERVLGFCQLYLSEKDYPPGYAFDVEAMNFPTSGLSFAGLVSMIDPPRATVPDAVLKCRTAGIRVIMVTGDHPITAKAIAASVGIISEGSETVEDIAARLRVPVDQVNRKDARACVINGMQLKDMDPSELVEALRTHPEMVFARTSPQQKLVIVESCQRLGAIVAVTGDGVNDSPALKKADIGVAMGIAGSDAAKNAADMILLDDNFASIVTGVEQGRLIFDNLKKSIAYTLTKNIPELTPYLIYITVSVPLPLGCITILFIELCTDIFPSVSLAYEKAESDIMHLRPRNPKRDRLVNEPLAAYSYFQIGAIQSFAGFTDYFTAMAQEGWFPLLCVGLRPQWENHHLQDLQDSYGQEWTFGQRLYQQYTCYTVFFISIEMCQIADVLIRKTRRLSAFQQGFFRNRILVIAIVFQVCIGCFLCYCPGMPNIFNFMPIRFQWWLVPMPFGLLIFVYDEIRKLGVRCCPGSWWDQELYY
T1 sequence (P18434 whole entry partner): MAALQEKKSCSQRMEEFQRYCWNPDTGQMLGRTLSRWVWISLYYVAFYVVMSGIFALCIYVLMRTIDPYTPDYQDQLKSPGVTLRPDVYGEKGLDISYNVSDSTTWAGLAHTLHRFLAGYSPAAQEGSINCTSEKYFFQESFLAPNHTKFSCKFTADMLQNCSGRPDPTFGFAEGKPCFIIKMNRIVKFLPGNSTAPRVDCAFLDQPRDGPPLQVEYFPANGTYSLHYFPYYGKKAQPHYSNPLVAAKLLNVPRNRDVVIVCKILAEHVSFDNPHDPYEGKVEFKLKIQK
Method: The effects of a single high concentration (100 μM) of a compound of structure (I) on K^+ -stimulated ATPase activity in lyophilised gastric vesicles was determined. Preferred compounds of structure (I) were also tested over a range of concentrations to determine IC50 values.
Lyophilised gastric vesicles were prepared from pig fundic mucosa after the method of Keeling et. al. (Biochem. Pharmacol., 34, 2967, 1985).
K^+ -stimulated ATPase activity was determined at 37° C. in the presence of the following: 10 mM Pipes/Tris buffer pH 7.0, 2 mM MgSO4, 1 mM KCl, 2 mM Na2 ATP and 3-6 μg protein/ml lyophilised gastric vesicles. After incubation for 30 minutes, the inorganic phosphate hydrolysed from ATP was determined by the method of Yoda and Hokin (Biochem. Biophys. Res. Commun. 40, 880, 1970).
Compounds of structure (I) were dissolved in dimethylsulphoxide which up to the highest concentration
used had no effect on K^+ -stimulated ATPase activity.
The effect of the highest concentration of each compound of structure (I) on the recovery of a standard amount of inorganic phosphate was also determined.

Row | Structure (SMILES) | IC50 (H^+ K^+ ATPase) [µM] | % inhibition of pentagastrin stimulated gastric acid secretion [1] [%]
1 | CCCC(=O)c1cnc2c(OC)cccc2c1Nc1ccccc1CO [Example 1, 3-butyryl-4-(2-(hydroxymethyl)phenylamino)-8-methoxyquinoline] | 12 | 33
2 | CCCC(=O)c1cnc2c(OC)cccc2c1Nc1ccccc1COC [Example 2, 3-butyryl-4-(2-methoxymethylphenylamino)-8-methoxyquinoline] | 5.5 | 43
3 | CCCC(=O)c1cnc2c(OC)cccc2c1Nc1ccc(CO)cc1 [Example 4, 3-butyryl-4-(4-hydroxymethylphenylamino)-8-methoxyquinoline] | – | 51

The next lines start with results.

Row | IC50 (H^+ K^+ ATPase) [µM] | Structure (SMILES) | % inhibition of pentagastrin stimulated gastric acid secretion [1] [%]
4 | 3.6 | CCCC(=O)c1cnc2c(OC)cccc2c1Nc1ccc2c(c1)OCO2 [Example 3, 3-butyryl-4-(3,4-(methylenedioxy)phenylamino)-8-methoxyquinoline] | 20
5 | 2.7 | CCCC(=O)c1cnc2c(OC)cccc2c1Nc1c(C)cc2c(c1C)OCO2 [Example 5, 3-butyryl-4-(3,4-methylenedioxy-2,6-dimethylphenylamino)-8-methoxyquinoline] | 44
6 | 6 | CCCC(=O)c1cnc2c(OC)cccc2c1Nc1cccc(CO)c1C [Example 6, 3-butyryl-4-(3-hydroxymethyl-2-methylphenylamino)-8-methoxyquinoline] | –
7 | 10.2 | CCCC(=O)c1cnc2c(OC)cccc2c1Nc1cc(CO)ccc1C [Example 7, 3-butyryl-4-(5-hydroxymethyl-2-methylphenylamino)-8-methoxyquinoline] | 25
